Measured values taken from patent publication EP4796130A1, “ANTI-TISSUE FACTOR ANTIBODY-DRUG CONJUGATE COMPRISING CAMPTOTHECIN DERIVATIVE” (Celltrion, Inc., priority 2023, dated 2025).
Like-named read-outs stand apart in the source and are kept apart here. Where a SMILES comes first, the peptide text is derived from it. [ ]: non-standard residue; d: D form. The star is where a group is joined. Dolaproine = CO[C@@H]([C@@H]1CCCN1)[C@@H](C)C(=O)O; Dil = CC[C@H](C)[C@H](NC)[C@@H](CC(=O)O)OC; X1 = C[C@@H](N*)[C@@H](O)c1ccccc1; NMeV = CN[C@H](C(=O)O)C(C)C

What was measured:
Format in all cases: cell-based
[1] = tested on: A431 (a skin cancer cell line); assay: In-vitro cell viability assay (CellTiter-Glo); conditions: Homo sapiens, A-431, 144 h
[2] = tested on: MCF-7 (a breast cancer cell line); assay: In-vitro cell viability assay (CellTiter-Glo); conditions: MCF7a, 144 h
[3] = tested on: HPAF-II (a pancreatic cancer cell line); assay: In-vitro cell viability assay (CellTiter-Glo); conditions: Homo sapiens, 144 h
[4] = tested on: Caski (a cervical cancer cell line); assay: In-vitro cell viability assay (CellTiter-Glo); conditions: Homo sapiens, Ca-Ski, 144 h
[5] = tested on: KYSE-520 (an esophageal cancer cell line); assay: In-vitro cell viability assay (CellTiter-Glo); conditions: Homo sapiens
[6] = tested on: T47D (a breast cancer cell line); assay: cells; conditions: Homo sapiens, 144 h
[7] = 6 days incubation, read-out: IC50

SMILES | IC50 ([1]; A431, 6 days incubation, read-out: IC50) | IC50 ([2]; MCF-7, 6 days incubation, read-out: IC50) | IC50 [3, 7] | IC50 ([4]; Caski, 6 days incubation, read-out: IC50) | IC50 ([5]; 144 h, KYSE-520, 6 days incubation, read-out: IC50) | IC50 [6, 7] | IC50 [1] | IC50 [2] | IC50 [3] | IC50 [4] | IC50 ([5]; KYSE-520, 144 h) | IC50 [6]
CC[C@H](C)[C@@H]([C@@H](CC(=O)N1CCC[C@H]1[C@H](OC)[C@@H](C)C(=O)N[C@H](C)[C@@H](O)c1ccccc1)OC)N(C)C(=O)[C@@H](NC(=O)[C@@H](NC)C(C)C)C(C)C [MMAE, monomethyl auristatin E] (H-[NMeV]V[Dil][Dolaproine]-X1) | 0.032 nM | 0.82 nM | 0.045 nM | 0.034 nM | 0.12 nM | 0.16 nM |  |  |  |  |  | 
CC[C@@]1(O)C(=O)OCc2c1cc1n(c2=O)Cc2c-1nc1cc3c(c4c1c2[C@@H](NC(=O)[C@@H](C)O)CC4)OCO3 [PBX-7016] |  |  |  |  |  |  | 1.94 nM | 6.02 nM | 2.87 nM | 0.75 nM | 2.06 nM | 0.46 nM
